# Measured values reported in PubChem BioAssay (NCI).
# Values joined by “and” are separate entries in the source; they are usually repeats but may differ in a detail not shown here. Equal entries are not always repeated.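 Each compound was tested at five concentrations against cells in 96-well plates for 48 hours. GI50 is the concentration that inhibits growth by half. TGI marks complete inhibition of growth.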
# Assays:
# Experiment in all cases: growth of human tumour cells (NCI), 48 h
# SF-268 CNS = system: SF-268 CNS
# UACC-62 melanoma = system: UACC-62 melanoma
# HCT-15 colon = system: HCT-15 colon
# NCI-H23 lung = system: NCI-H23 lung
# OVCAR-3 ovarian = system: OVCAR-3 ovarian
# SK-MEL-5 melanoma = system: SK-MEL-5 melanoma
# HCT-116 colon = system: HCT-116 colon
# EKVX NSCLC = system: EKVX NSCLC
# U251 CNS = system: U251 CNS
# IGROV1 ovarian = system: IGROV1 ovarian
SMILES,GI50 (SF-268 CNS),TGI (SF-268 CNS),GI50 (UACC-62 melanoma) [µM],TGI (UACC-62 melanoma),GI50 (HCT-15 colon) [µM],TGI (HCT-15 colon),GI50 (NCI-H23 lung) [µM],TGI (NCI-H23 lung),GI50 (OVCAR-3 ovarian) [µM],TGI (OVCAR-3 ovarian),GI50 (SK-MEL-5 melanoma) [µM],TGI (SK-MEL-5 melanoma),GI50 (HCT-116 colon),TGI (HCT-116 colon),GI50 (EKVX NSCLC) [µM],TGI (EKVX NSCLC),GI50 (U251 CNS) [µM],TGI (U251 CNS),GI50 (IGROV1 ovarian) [µM],TGI (IGROV1 ovarian)
Cc1cc(C(=O)CC(Cl)=C(Cl)Cl)c(Cl)cc1Cl,20.9 µM,55.8 µM,18.4,39.3 µM,20,41.2 µM,18.6,37.9 µM,21.4,54.1 µM,18,39.9 µM,19.1 µM,33.2 µM,19,47.7 µM,18.6,38.1 µM,22,82.9 µM
COC1/C=C/OC2(C)Oc3c(C)c(O)c4c(O)c(c(/C=N/N(c5ccccc5)c5ccccc5)c(O)c4c3C2=O)NC(=O)C(C)=C/C=C/C(C)C(O)C(C)C(O)C(C)C(OC(C)=O)C1C (stereo not drawn),1.93 µM,8.51 µM,0.992,2.58 µM,1.48,5.45 µM,1.96,8.98 µM,0.852,1.7 µM,1.76,6.75 µM,0.858 µM,1.76 µM,2.78,11.3 µM,1.2,3 µM,1.85,11.5 µM
CN(CO)c1nc(N(C)CO)nc(N(C)CO)n1,26.2 µM and 18.5 µM,64.1 µM and 70.2 µM,17.2,33.8 µM and 25.4 µM,25.8,65.5 µM and 37.1 µM,25.4,59.8 µM and 91.7 µM,–,62.1 µM and 63.5 µM,18.1,32.2 µM and 33.8 µM,21.7 µM and 11.7 µM,53.2 µM and 47.3 µM,41.8,> 81.5 µM and 77.7 µM,29.6,72.8 µM and 46.2 µM,16.1,67.1 µM and 79.1 µM
O=C1c2c(c3c4ccccc4n(CCCCCCN4CCOCC4)c3c3[nH]c4ccccc4c23)C(=O)N1O,15.8 µM,39.4 µM,1.91,4.62 µM,3.03,12.2 µM,15.8,45.9 µM,16.3,33.8 µM,4.22,20 µM,1.85 µM,3.86 µM,> 43.1,> 82.5 µM,1.68,3.22 µM,3.76,49.3 µM
Cc1cc2oc(=O)cc(OC/C=C3/CCC(=O)O3)c2cc1C,6.46 µM,40.1 µM,3.38,13.6 µM,2.69,12.2 µM,8.04,22.5 µM,2.93,11.4 µM,12.4,26.3 µM,2.72 µM,–,12.9,30.5 µM,3.42,15.1 µM,3.33,14.6 µM
CCCn1cc(/C=N\N=C2\C(=O)Nc3ccc(C)cc32)c2ccccc21,3.33 µM,28 µM,2.24,12.1 µM,2.63,42.2 µM,3.13,38.2 µM,1.36,5.11 µM,2.86,13.5 µM,1.75 µM,4.17 µM,2.36,> 100 µM,3.51,17.3 µM,3.38,63.1 µM
CCc1nc(N)nc(N)c1-c1ccc(N(C)Cc2ccccc2)c([N+](=O)[O-])c1,–,37.9 µM,–,13 µM,–,9.86 µM,–,24.4 µM,–,22.6 µM,–,4.32 µM,–,10 µM,–,35 µM,–,24.5 µM,–,25.8 µM
COc1ccc2[nH]cc(C3(c4c[nH]c5ccc(OC)cc45)C(=O)Nc4ccc(Cl)cc43)c2c1,4.81 µM,57.9 µM,3.61,> 100 µM,7.09,> 100 µM,3.03,23.2 µM,2.99,8.5 µM,2.56,7.57 µM,3.63 µM,10.7 µM,2.16,11.9 µM,2.88,13.4 µM,3.28,21.2 µM
O=[N+]([O-])c1cc(C(F)(F)F)cc2n[se]nc12,–,15.3 µM,–,15 µM,–,5.59 µM,–,9.58 µM,–,3.33 µM,–,8.02 µM,–,3.46 µM,–,14.1 µM,–,29.5 µM,–,14.6 µM
O=c1oc2ccc(I)cc2c(=O)n1-c1ccc(I)cc1F,0.511 µM,7.64 µM,0.279,1.11 µM,0.704,10.5 µM,0.476,4.39 µM,0.44,9.75 µM,0.258,0.747 µM,0.472 µM,2.27 µM,1.15,8.21 µM,0.612,> 45.3 µM,0.406,20.8 µM
Cc1cnc(-c2ccc(-c3ccc(NC(=O)Nc4cccc(C(F)(F)F)c4)cc3F)c3c2C(=O)NC3)[nH]1,11.4 µM,> 48.1 µM,9.61,35.5 µM,6.19,33.6 µM,4.42,33.5 µM,14.4,36.7 µM,23.6,> 65.6 µM,0.548 µM,23.8 µM,26,> 50.6 µM,11.3,32 µM,1.97,32.2 µM
N#Cc1ccc(O)c(C2=NCC(c3ccc(-c4ccccc4)cc3)O2)c1 (stereo not drawn),0.499 µM,16.1 µM,0.407,1.61 µM,0.0896,20.4 µM,0.703,17.2 µM,0.368,11.7 µM,0.532,2.28 µM,0.462 µM,15.2 µM,0.342,10.4 µM,0.326,11.6 µM,0.478,14.3 µM
